Measurements taken from PubChem BioAssay AID2060889 (Molecular Pharmacology Branch, DTP, NCI, 2025).

System: LG0567-F671-PDC complex spheroids viability
Assay: Anticancer human tumor LG0567-F671-PDC patient-derived lung adenocarcinoma cell line growth inhibition [RAS]
Conditions: for IC50: curve of first compound; for viability, T/C: stronger effect = lower value
Source text: RAS pathway inhibitors in Combinations in Complex Spheroids
A high-throughput screen of multi-cell type tumor spheroids was designed to identify active combinations of RAS pathway inhibitors and targeted small molecules. Complex spheroids include a stromal component modeled by human endothelial cells (HUVEC) and fibroblasts modeled by human mesenchymal stem cells (MSCs). The concentration ranges selected for each drug and investigational agent were based upon clinically achievable concentrations if the clinical Cmax of the agent was known.
Compounds. The drugs and investigational agents: abemaciclib (NSC768073), cobimetinib (NSC768068), divarasib (GDC6063, NSC841802), docetaxel (NSC628503), GDC-1971 (RLY-1971, NSC841576), gemcitabine (NSC613327), inavolisib (NSC800729), ipatasertib (NSC767898), KB-0742 (NSC834161), MRTX-1133 (NSC836407), osimertinib (NSC779217), RMC-4630 (NSC839698), RMC-6236 (NSC851965), RMC-6291 (NSC852671), Ro-3306 (NSC812927), sapanisertib (NSC764658), SN-38 (NSC673596), staurosporine (NSC755774), SY5609 (NSC837396), and tovorafenib (DAY101, NSC766906), were obtained from the National Cancer Institute (NCI) Developmental Therapeutics Program Chemical Repository. The FDA-approved anticancer drug set is available from the NCI Developmental Therapeutics Program. […] The stock solutions were prepared in dimethyl sulfoxide (DMSO, Sigma-Aldrich, St. Louis, MO, cat. D2650) at 800-fold the tested concentration and stored at -70 degrees C prior to their use. All drugs and investigational agents were tested over a range starting from a high concentration at or near the clinical Cmax and decreasing in half-log increments. If the clinical Cmax for an agent had not been determined, the highest concentration tested was 10 microM.
Cell Culture. All cells were maintained in an incubator at 37 degrees C and 5% CO2 with 95% humidity. The PDC lines were cultured according to standard operating procedures established by the NCI PDMR. All PDCs were thawed and cultured in Matrigel-coated flasks prepared with a working solution of 1X Ham's F-12 nutrient mix, without supplementation (Invitrogen, Waltham, MA, cat. 11765054), 100 U/mL penicillin-streptomycin (Invitrogen, cat. 15140122), and 2.5% Matrigel (Corning Inc., Corning, NY, cat. 354248) for the first three passages. The 362531-283-R-J2-PDC and 782815-120-R-J1-PDC lines were cultured in 6C/Colon 1B media, which includes advanced DMEM/F-12 (Thermo Fisher Scientific, cat. 12634028), 10 mM HEPES (Thermo Fisher Scientific, cat. 15630080), 1X GlutaMAX supplement (Thermo Fisher Scientific, cat. 35050061), 0.1 mg/mL primocin (InvivoGen, San Diego, CA, cat. ant-pm-2), 10% defined fetal bovine serum, heat inactivated (HyClone Laboratories Inc., Logan, UT, cat. SH30070.03HI), 50% L-WRN conditioned media (ATCC, cat. CRL-3276), 1.25 mM N-Acetyl-L-cysteine (Sigma-Aldrich, cat. A9165), 10 mM nicotinamide (Sigma-Aldrich, cat. N0636), 1X B-27 supplement (Thermo Fisher Scientific, cat. 17504044), 1X N-2 supplement (Thermo Fisher Scientific, cat. 17502048), 50 ng/mL human EGF (Thermo Fisher Scientific, cat. PHG0311), and 10 microM Y-27632 dihydrochloride (Tocris Bioscience, cat. 1254). The K12877-001-R-J1-PDC line was cultured in 6I media, which includes all 6C/Colon 1B media plus 10 ng/mL human FGF-10 (PeproTech, cat. 100-26), 1 ng/mL human FGF-2 (PeproTech, cat. 100-18B), 1 µM prostaglandin E2 (Tocris Bioscience, cat. 2296), […] hydrocortisone (Sigma-Aldrich, cat. H4001), and […] bovine insulin (Sigma-Aldrich, cat. I6634). The K86415-001-R-J1-PDC line was cultured in 6D media, which includes all 6C/Colon 1B media components minus the L-WRN conditioned media. The 485176-168-R4-J1-PDC was cultured in PANC media, which includes all 6C/Colon 1B media plus 100 ng/mL human FGF-10 (PeproTech, cat. 100-26), 500 nM SB-431542 (Selleckchem, cat. S1067), and 10 nM gastrin (Tocris Bioscience, cat. 3006). […]

[1] = second compound 0.0316 µM, first compound 0.0316 µM
[2] = second compound 0.0316 µM, first compound 0.1 µM
[3] = second compound 0.0316 µM, first compound 0.316 µM
[4] = second compound 0.0316 µM, first compound 1 µM
[5] = second compound 0.0316 µM, first compound 3.16 µM
[6] = second compound 0.0316 µM, first compound 10 µM
[7] = second compound 0.1 µM, first compound 0.0316 µM
[8] = second compound 0.1 µM, first compound 0.1 µM
[9] = second compound 0.1 µM, first compound 0.316 µM
[10] = second compound 0.1 µM, first compound 1 µM
[11] = second compound 0.1 µM, first compound 3.16 µM
[12] = second compound 0.1 µM, first compound 10 µM
[13] = second compound 0.316 µM, first compound 0.0316 µM
[14] = second compound 0.316 µM, first compound 0.1 µM
[15] = second compound 0.316 µM, first compound 0.316 µM
[16] = second compound 0.316 µM, first compound 1 µM
[17] = second compound 0.316 µM, first compound 3.16 µM
[18] = second compound 0.316 µM, first compound 10 µM
[19] = second compound 1 µM, first compound 0.0316 µM
[20] = second compound 1 µM, first compound 0.1 µM
[21] = second compound 1 µM, first compound 0.316 µM
[22] = second compound 1 µM, first compound 1 µM
[23] = second compound 1 µM, first compound 3.16 µM
[24] = second compound 1 µM, first compound 10 µM
[25] = second compound 3.16 µM, first compound 0.0316 µM
[26] = second compound 3.16 µM, first compound 0.1 µM
[27] = second compound 3.16 µM, first compound 0.316 µM
[28] = second compound 3.16 µM, first compound 1 µM
[29] = second compound 3.16 µM, first compound 3.16 µM
[30] = second compound 3.16 µM, first compound 10 µM
[31] = second compound 10 µM, first compound 0.0316 µM
[32] = second compound 10 µM, first compound 0.1 µM
[33] = second compound 10 µM, first compound 0.316 µM
[34] = second compound 10 µM, first compound 1 µM
[35] = second compound 10 µM, first compound 3.16 µM
[36] = second compound 10 µM, first compound 10 µM
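Also: spheroids exposed to compound for seven days before readout.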
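For IC50 in this document: luminescence signal used as a proxy for viable cells.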

## CC1(O)CCCC1n1c(=O)c(C(F)F)cc2cnc(NC3CCN(S(C)(=O)=O)CC3)nc21 (centres undefined) + C#Cc1c(F)ccc2cc(O)cc(-c3ncc4c(N5CC6CCC(C5)N6)nc(OCC56CCCN5CC(F)C6)nc4c3F)c12
Second compound 0.0316 µM
  IC50: 5850 nM
Second compound 0.1 µM
  IC50: 6120 nM
Second compound 0.316 µM
  IC50: 3370 nM
Second compound 1 µM
  IC50: < 31.6 nM
Second compound 3.16 µM
  IC50: < 31.6 nM
Second compound 10 µM
  IC50: < 31.6 nM
[1]
  viability, T/C: 85.5%
[2]
  viability, T/C: 68.3%
[3]
  viability, T/C: 77.8%
[4]
  viability, T/C: 85.4%
[5]
  viability, T/C: 78.9%
[6]
  viability, T/C: 24.9%
[7]
  viability, T/C: 72.2%
[8]
  viability, T/C: 59.1%
[9]
  viability, T/C: 75.2%
[10]
  viability, T/C: 81.6%
[11]
  viability, T/C: 76.9%
[12]
  viability, T/C: 33.1%
[13]
  viability, T/C: 56.1%
[14]
  viability, T/C: 56.2%
[15]
  viability, T/C: 62.7%
[16]
  viability, T/C: 54.5%
[17]
  viability, T/C: 71.1%
[18]
  viability, T/C: 27.5%
[19]
  viability, T/C: 33.1%
[20]
  viability, T/C: 36.8%
[21]
  viability, T/C: 45.6%
[22]
  viability, T/C: 40%
[23]
  viability, T/C: 40.6%
[24]
  viability, T/C: 18.3%
[25]
  viability, T/C: 17.3%
[26]
  viability, T/C: 23.6%
[27]
  viability, T/C: 25.2%
[28]
  viability, T/C: 29.3%
[29]
  viability, T/C: 23.3%
[30]
  viability, T/C: 14.6%
[31]
  viability, T/C: 14.2%
[32]
  viability, T/C: 15.3%
[33]
  viability, T/C: 17.8%
[34]
  viability, T/C: 18.5%
[35]
  viability, T/C: 14.7%
[36]
  viability, T/C: 8.46%

## CCC(CC)c1cc(NC2CCC(N)C2)n2nccc2n1 (centres undefined) + C#Cc1c(F)ccc2cc(O)cc(-c3ncc4c(N5CC6CCC(C5)N6)nc(OCC56CCCN5CC(F)C6)nc4c3F)c12
Second compound 0.0316 µM
  IC50: 1900 nM
Second compound 0.1 µM
  IC50: 1710 nM
Second compound 0.316 µM
  IC50: 1250 nM
Second compound 1 µM
  IC50: < 31.6 nM
Second compound 3.16 µM
  IC50: < 31.6 nM
Second compound 10 µM
  IC50: < 31.6 nM
[1]
  viability, T/C: 102%
[2]
  viability, T/C: 97.2%
[3]
  viability, T/C: 111%
[4]
  viability, T/C: 119%
[5]
  viability, T/C: 4.67%
[6]
  viability, T/C: 0.25%
[7]
  viability, T/C: 78.4%
[8]
  viability, T/C: 83.5%
[9]
  viability, T/C: 92.2%
[10]
  viability, T/C: 104%
[11]
  viability, T/C: 4.32%
[12]
  viability, T/C: 0.47%
[13]
  viability, T/C: 60.3%
[14]
  viability, T/C: 57.3%
[15]
  viability, T/C: 59.7%
[16]
  viability, T/C: 67.8%
[17]
  viability, T/C: 3.78%
[18]
  viability, T/C: 0.39%
[19]
  viability, T/C: 32.4%
[20]
  viability, T/C: 37%
[21]
  viability, T/C: 43.4%
[22]
  viability, T/C: 38.2%
[23]
  viability, T/C: 3.47%
[24]
  viability, T/C: 0.38%
[25]
  viability, T/C: 18.2%
[26]
  viability, T/C: 17.8%
[27]
  viability, T/C: 20.2%
[28]
  viability, T/C: 17.1%
[29]
  viability, T/C: 2.86%
[30]
  viability, T/C: 0.37%
[31]
  viability, T/C: 10.3%
[32]
  viability, T/C: 11.3%
[33]
  viability, T/C: 10.3%
[34]
  viability, T/C: 9.32%
[35]
  viability, T/C: 1.25%
[36]
  viability, T/C: 0.15%
